In patent publication US5371081A, “N-substituted phenoxazines for treating multidrug resistant cancer cells” (St. Jude Children's Research Hospital, priority 1993, dated 1994):
pIC50: −log10 of the molar value. Where two headings read alike, the source gives them in different places.

Experiments:
[1] = system: KB Ch^R -8-5 Cells; experiment: Vinca (VCR, VLB) accumulation, anti-MDR activity; format: cell-based; conditions: Homo sapiens, compound 100 μM, 2 h, room temperature, mean of two experiments, SD <10%
Description: The resistance of the KBCh®-8-5 cells was maintained by culturing them with colchicine (10 ng/ml).
Then, 2 mL of cell suspensions (2×10^6) were plated in 35×10 mm style "easy grip" culture dishes (Becton Dickinson Co., Lincoln Park, N.J.). Cells were allowed to attach to plastic overnight at 37° C. Medium was aspirated and cells were washed with (2×2 mL) physiologic tris (PT) buffer. […] VCR (sp.act. 7.1 ci/mmol) or 49.5 nm [^3 H] […] After 2 h of incubation at room temperature, medium was rapidly aspirated to terminate drug accumulation, and monolayers were washed four times with ice-cold PBS (g/L: NaCL 8.0; Na2 HPO4.12H2 O, 2.9; KCl 0.2; KH2 PO4, 0.2) and drained. To each dish, 1 ml of trypsin-EDTA (0.05% trypsin, 0.53 mM EDTA) was added. After 1 minute, monolayers were triturated to give a uniform suspension of cells, and radioactivity in 0.75 ml was determined by scintillation counting. Cell number per dish was determined on 200 μl of suspension using the method of Butler, and amounts of intracellular VCR or VLB were determined.

[2] = system: GC3 /CL; experiment: Cytotoxicity of N-substituted phenoxazines to tumor cells (clonogenic survival); format: cell-based; conditions: Homo sapiens, 168 h, 7 days, 37° C., read-out: IC50 (50% reduction in clonogenic survival)
Description: (§1) The KBCh®-8-5 cells were plated in triplicate at a density of 1000 cells per well and GC3 at 3000 cells per well in Falcon 6-well flat-bottom tissue culture plates (Becton Dickinson Co., Lincoln Park, N.J.). After 24 h, incubation medium was replaced with 3 mL of fresh medium containing compounds 1-4 or 10-14 or 18 at concentrations ranging from 1-100 μm (final culture concentration, 0.1% DMSO), and cells were incubated at 37° C. for a further 7 days. The medium was aspirated and cells were washed once with 2 mL of 0.9% saline and dried overnight. Colonies were stained with 1 mL of 0.1% crystal violet followed by washing twice with distilled water and were counted using an automated ARTEK Model 880 colony counter. The IC50 values were determined from concentration-percent-cell-survival curves and were defined as the concentrations of phenoxazines required for 50% reduction in colonies compared to controls.
(§2) ^a IC50 is the concentration required to produce 50% reduction i
(§3) clonogenic survivial of GC3 /Cl and KBCH^R -85 cells under the
(§4) conditions described in Example 23.

[3] = system: KBCh^R -8-5; experiment: as above; format: cell-based; conditions: Homo sapiens, 168 h, 7 days, 37° C., read-out: IC50 (50% reduction in clonogenic survival)
Description: as §1, §2, §3, §4

[4] = system: GC3 /Cl Cells; experiment: Vinca (VCR, VLB) accumulation, anti-MDR activity; format: cell-based; conditions: Homo sapiens, compound 100 μM, 2 h, room temperature, mean of two experiments, SD <10%
[5] = system: KBCh®-8-5; experiment: Cross-resistance of cell line to VCR and VLB; format: cell-based, human; conditions: KBCh®-8-5, colchicine selected MDR variant
Description: (§5) A cloned line of human colon adenocarcinoma, GC3 /Cl^31, which is intrinsically resistant to VCR (≈4-fold relative to KB-3-1), was routinely grown at 37° C. in antibiotic-free RPMI-1640 medium supplemented with 2 mM glutamine and 10% FBS (Hyclone Laboratories, Inc., Logan, Utah) in a humidified atmosphere of 5% CO2 and 95% air. Human epidermoid carcinoma KB-3-1 cells and a colchicine selected MDR variant, KBCh®-8-5, were obtained which was cross-resistant to VCR (45-fold) and VLB (6.3-fold); it was grown in monolayer culture at 37° C. in DMEM with 10% FBS and L-glutamine in a humidified atmosphere of 10% CO2 in air. The resistance of the KBCh®-8-5 cells was maintained by culturing them with colchicine (10 ng/ml).

[6] = system: GC3 /CL; experiment: Resistance of cell line to VCR; format: cell-based, human; conditions: relative to KB-3-1
Description: as §5

[7] = system: KB Ch^R -8-5 Cells; experiment: Potentiation of cytotoxicity of vincristine and vinblastine; format: cell-based; conditions: Homo sapiens, 168 h
Description: (§6) Tumor cells were treated with graded concentrations of VCR and VLB in the absence or presence of nontoxic concentrations of the products of Examples 1, 3, 4 and 18. The plates were then transferred to a CO2 incubator and, after further incubation for 7 days at 37° C., colonies were enumerated as described in Example 23.
(§7) ^a IC50 concentration of modulator

[8] = system: GC3 /Cl Cells; experiment: as above; format: cell-based; conditions: Homo sapiens, 168 h
Description: as §6, §7

[9] = system: MDR; conditions: in model systems; cited from earlier work
[10] = system: MDR GC3 /Cl cells; conditions: compared with verapamil; cited from earlier work
[11] = system: KBCh®-8-5 cells; conditions: compared with verapamil; cited from earlier work
[12] = [3H] VCR 70.4 nm, read-out: Vinca Accumulation, VCR
[13] = [3H] VLB 49.5 nm, read-out: Vinca Accumulation, VLB

Row | Compound | activity at 100 µM [1, 12] | pIC50 [3] | activity at 100 µM [4, 12] | other results
1 | ClCCCN1c2ccccc2Oc2ccccc21 [Compound 1, 10-(3'-chloropropyl)-phenoxazine] | 454% | 4.24 | 846% | pIC50 [2]: 4.08
2 | CCN(CC)CCCN1c2ccccc2Oc2ccccc21 [Compound 2, 10-(3'-diethylaminopropyl)phenoxazine] | 546% | 4.82 | 439% | –
3 | OCCN(CCO)CCCN1c2ccccc2Oc2ccccc21 [Compound 3, 10-(3'-bishydroxyethylaminopropyl)phenoxazine] | 473% | 4.42 | 464% | pIC50 [2]: 4.43
4 | c1ccc2c(c1)Oc1ccccc1N2CCCN1CCOCC1 [Compound 4, 10-(3'-N-morpholinopropyl)phenoxazine] | 742% | 4.14 | 634% | pIC50 [2]: 4.40
5 | c1ccc2c(c1)Oc1ccccc1N2CCCN1CCCCC1 [Compound 5, 10-(3'-N-piperidinopropyl)phenoxazine] | 435% | – | 282% | –
6 | OCCN1CCN(CCCN2c3ccccc3Oc3ccccc32)CC1 [Compound 6, 10-(3'-β-hydroxyethylpiperazinopropyl) phenoxazine] | 343% | – | 368% | –
7 | c1ccc2c(c1)Oc1ccccc1N2CCCN1CCCC1 [Compound 7, 10-(3'-N-pyrrolidinopropyl)phenoxazine] | 408% | – | 250% | –
8 | ClCCCCN1c2ccccc2Oc2ccccc21 [Compound 8, 10-(4'-chlorobutyl)phenoxazine] | 398% | – | 317% | –
9 | CCN(CC)CCCCN1c2ccccc2Oc2ccccc21 [Compound 9, 10-(4'-diethylaminobutyl)phenoxazine] | 211% | – | 325% | –
10 | OCCN(CCO)CCCCN1c2ccccc2Oc2ccccc21 [Compound 10, 10-(4'-bishydroxyethylaminobutyl) phenoxazine] | 92% | > 5.00 | 382% | pIC50 [2]: 4.80
11 | c1ccc2c(c1)Oc1ccccc1N2CCCCN1CCOCC1 [Compound 11, 10-(4'-N-morpholinobutyl)phenoxazine] | 702% | 4.74 | 477% | pIC50 [2]: 4.57
12 | c1ccc2c(c1)Oc1ccccc1N2CCCCN1CCCCC1 [Compound 12, 10-(4'-N-piperidinobutyl)phenoxazine] | 196% | > 5.00 | 416% | pIC50 [2]: 5.15
13 | OCCN1CCN(CCCCN2c3ccccc3Oc3ccccc32)CC1 [Compound 13, 10-(4'-β-hydroxyethylpiperazinobutyl) phenoxazine] | 91% | > 5.00 | 543% | activity at 100 µM [1, 13]: 188%; pIC50 [2]: 5.15
14 | c1ccc2c(c1)Oc1ccccc1N2CCCCN1CCCC1 [Compound 14, 10-(4'-N-pyrrolidinobutyl)phenoxazine] | 198% | > 5.00 | 412% | activity at 100 µM [1, 13]: 477%; pIC50 [2]: 5.10
15 | O=C(CCl)N1c2ccccc2Oc2ccccc21 [Compound 15, 10-(chloroacetyl)phenoxazine] | 138% | – | 171% | activity at 100 µM [1, 13]: 236%; activity at 100 µM [4, 13]: 284%
16 | CCN(CC)CC(=O)N1c2ccccc2Oc2ccccc21 [Compound 16, 10-(diethylaminoacetyl)phenoxazine] | 184% | – | 160% | activity at 100 µM [1, 13]: 953%; activity at 100 µM [4, 13]: 305%
17 | O=C(CN1CCOCC1)N1c2ccccc2Oc2ccccc21 [Compound 17, 10-(N-morpholinoacetyl)phenoxazine] | 290% | – | 213% | activity at 100 µM [1, 13]: 674%; activity at 100 µM [4, 13]: 298%
18 | O=C(CN1CCCCC1)N1c2ccccc2Oc2ccccc21 [Compound 18, 10-(N-piperidinoacetyl)phenoxazine] | 326% | 4.14 | 177% | activity at 100 µM [4, 13]: 446%
19 | O=C(CN1CCN(CCO)CC1)N1c2ccccc2Oc2ccccc21 [Compound 19, 10-(β-hydroxyethylpiperazinoacetyl)phenoxazine] | 280% | – | 157% | activity at 100 µM [1, 13]: 776%; activity at 100 µM [4, 13]: 426%
20 | O=C(CN1CCCC1)N1c2ccccc2Oc2ccccc21 [Compound 20, 10-(N-pyrrolidinoacetyl)phenoxazine] | 188% | – | 151% | activity at 100 µM [1, 13]: 776%; activity at 100 µM [4, 13]: 296%
21 | O=C(N1c2ccccc2Oc2ccccc21)C(F)(F)F [Compound 21, 10-(trifluoroacetyl)phenoxazine] | 415% | – | 230% | activity at 100 µM [1, 13]: 827%; activity at 100 µM [4, 13]: 222%
22 | CC[C@]1(O)C[C@H]2CN(CCc3c([nH]c4ccccc34)[C@@](C(=O)OC)(c3cc4c(cc3OC)N(C=O)[C@H]3[C@@](O)(C(=O)OC)[C@H](OC(C)=O)[C@]5(CC)C=CCN6CC[C@]43[C@@H]65)C2)C1 [VCR] | – | – | – | cross-resistance to VCR [5]: 45 fold; resistance to VCR [6]: ≈ 4 fold; pIC50 ([7]; read-out: IC50 of VCR alone): 7.49; pIC50 ([8]; read-out: IC50 of VCR alone): 7.57
23 | CC[C@]1(O)C[C@@H]2CN(CCc3c([nH]c4ccccc34)[C@@](C(=O)OC)(c3cc4c(cc3OC)N(C)[C@H]3[C@@](O)(C(=O)OC)[C@H](OC(C)=O)[C@]5(CC)C=CCN6CC[C@]43[C@@H]65)C2)C1 [VLB] | – | – | – | cross-resistance to VLB [5]: 6.3 fold; pIC50 ([7]; read-out: IC50 of VLB alone): 7.70; pIC50 ([8]; read-out: IC50 of VLB alone): 8.13
24 | COc1ccc(CCN(C)CCCC(C#N)(c2ccc(OC)c(OC)c2)C(C)C)cc1OC (stereo not shown) [Verapamil] | – | – | – | modifying MDR [9]: active in modifying MDR
25 | c1ccc2c(c1)Nc1ccccc1O2 [phenoxazine] | – | – | – | potentiation of uptake of VCR and VLB [10]: to a greater extent than verapamil; potentiation of uptake of VCR and VLB [11]: to a greater extent than verapamil
26 | C=C[C@H]1C[N@@]2CC[C@H]1C[C@@H]2[C@@H](O)c1ccnc2ccc(OC)cc12 [quinidine] | – | – | – | modifying MDR [9]: active in modifying MDR
27 | COC(=O)[C@H]1[C@H]2C[C@@H]3c4[nH]c5cc(OC)ccc5c4CCN3C[C@H]2C[C@@H](OC(=O)c2cc(OC)c(OC)c(OC)c2)[C@@H]1OC [reserpine] | – | – | – | modifying MDR [9]: active in modifying MDR
28 | CN1CCN(CCCN2c3ccccc3Sc3ccc(C(F)(F)F)cc32)CC1 [trifluoperazine] | – | – | – | modifying MDR [9]: active in modifying MDR
